# Reference: article PMC8167103, “Regulation of Bcl-XL by non-canonical NF-κB in the context of CD40-induced drug resistance in CLL” (Cell Death and Differentiation, 2021)
# Molecular target: T1, NIK (Homo sapiens, UniProt Q99558)
# T1 construct: gene MAP3K14
# Assay: Kinase-Glo luminescence kinase assay with recombinant human active NIK, myelin basic protein and […] ATP; IC50 converted to Ki
# Type: biochemical
# T1 sequence (Q99558 whole entry): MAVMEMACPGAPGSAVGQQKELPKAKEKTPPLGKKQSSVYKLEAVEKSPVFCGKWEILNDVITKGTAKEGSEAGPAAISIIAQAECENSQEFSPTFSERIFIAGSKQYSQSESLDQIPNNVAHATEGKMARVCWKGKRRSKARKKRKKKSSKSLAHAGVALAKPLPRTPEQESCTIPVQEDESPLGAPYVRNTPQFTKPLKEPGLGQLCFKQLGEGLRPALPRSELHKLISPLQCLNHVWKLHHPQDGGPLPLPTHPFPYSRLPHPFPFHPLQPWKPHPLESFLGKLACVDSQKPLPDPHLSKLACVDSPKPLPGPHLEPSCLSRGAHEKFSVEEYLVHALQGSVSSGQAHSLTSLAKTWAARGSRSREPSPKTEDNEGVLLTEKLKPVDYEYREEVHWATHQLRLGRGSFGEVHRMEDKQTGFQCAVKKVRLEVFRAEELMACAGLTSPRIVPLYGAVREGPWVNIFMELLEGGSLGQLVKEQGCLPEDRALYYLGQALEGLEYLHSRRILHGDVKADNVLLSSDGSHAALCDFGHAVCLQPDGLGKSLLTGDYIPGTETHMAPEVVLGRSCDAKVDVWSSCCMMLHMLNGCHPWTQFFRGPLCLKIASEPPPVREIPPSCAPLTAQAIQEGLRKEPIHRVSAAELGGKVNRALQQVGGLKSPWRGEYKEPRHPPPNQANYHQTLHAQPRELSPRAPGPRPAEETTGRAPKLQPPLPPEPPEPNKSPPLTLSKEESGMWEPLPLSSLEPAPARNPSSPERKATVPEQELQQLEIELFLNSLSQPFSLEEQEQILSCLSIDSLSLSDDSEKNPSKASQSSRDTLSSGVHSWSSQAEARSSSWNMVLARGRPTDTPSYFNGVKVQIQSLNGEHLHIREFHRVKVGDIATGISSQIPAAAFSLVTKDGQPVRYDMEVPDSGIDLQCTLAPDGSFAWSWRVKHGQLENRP
structure (smiles),measurement,value
"CC(C)(O)C#Cc1ccc2c(c1)N(c1ccnc(N)n1)CC2 [CW15337, 4-(1-(2-aminopyrimidin-4-yl)indolin-6-yl)-2-methylbut-3-yn-2-ol]",Ki,25 nM
